Our source for the IC50, Ki and cleaved bond values is US6288037A (BASF Aktiengesellschaft, priority 1996, dated 2001).

By IC50 is commonly meant the concentration that inhibits the measured activity by half.

The target of data set [1] is T1, N-His Ich-1 (Homo sapiens, UniProt P42575).
T1 construct: contains Ich-1 amino acid residues 167-435, with an initiator and polyhistidine tag fused to the amino terminus; initiator (Met) + polyhistidine tag (N); made in house
T1 sequence (P42575 184-333): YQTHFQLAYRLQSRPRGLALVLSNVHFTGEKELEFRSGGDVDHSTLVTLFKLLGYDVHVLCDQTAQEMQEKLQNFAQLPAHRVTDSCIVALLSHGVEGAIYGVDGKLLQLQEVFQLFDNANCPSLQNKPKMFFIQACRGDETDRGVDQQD
T1 sequence (P42575 334-452): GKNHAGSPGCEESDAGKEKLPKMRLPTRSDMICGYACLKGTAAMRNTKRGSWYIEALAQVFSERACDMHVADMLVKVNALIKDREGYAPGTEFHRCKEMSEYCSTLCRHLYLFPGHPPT
The experiment in a line: In vitro proteolysis assay with chromogenic para-nitroaniline-labeled peptide substrate (absorbance 405 nm). The format is biochemical. The text has this: To identify peptide substrates for Ich-1, candidate peptides were used in in vitro proteolysis assays with recombinant Ich-1 protein. Human Ich-1 enzyme (the nucleotide and amino acid sequences for which are disclosed in Wang, L., et al. (1994) Cell 78:739-750) was expressed recombinantly with an N-terminal polyhistidine tag by methods described in Kamens, J., et al. (1995) J. Biol. Chem. 270:15250-15256. The resulting enzyme, called N-His Ich-1, contains Ich-1 amino acid residues 167-435, with an initiator and polyhistidine tag fused to the amino terminus. […]
A peptidic aldehyde inhibitor of Ich-1 was designed based upon the optimal peptide substrate (Peptide 43) described in Example 3. […] The ability of this peptidic aldehyde inhibitor to inhibit N-His Ich-1 activity was determined in in vitro proteolysis assays using a chromogenic para-nitroaniline-labeled peptide substrate. […]
To perform the proteolysis assay, N-His Ich-1 was preincubated for 30 minutes at 30° C. in 160 μl of a reaction buffer containing 100 mM sodium acetate (pH 6.2), 20% (v/v) glycerol, 5 mM DTT, 0.5 mM EDTA, […]. […] The incubation of N-His Ich-1 with the peptide substrate at 30° C. was continued, and the catalytic hydrolysis of peptide substrate was monitored by the change in absorbance of the samples at 405 nm due to release of pNA as a function of time. […]

Data set [2] concerns N-His Ich-1. The experiment in a line: reaction buffer containing 100 mM sodium acetate (pH 6.2), 20% (v/v) glycerol, 5 mM DTT, 0.5 mM EDTA, at pH 7.5. The conditions noted are these: Human, 30° C.

Where a SMILES comes first, the peptide text is derived from it.

On to `CC(=O)N[C@H](C(=O)N[C@@H](CC(=O)O)C(=O)N[C@H](C(=O)N[C@@H](C)C(=O)N[C@H](C=O)CC(=O)O)C(C)C)C(C)C` [Ac-VDVAD-CHO, acetyl-Val-Asp-Val-Ala-Asp-CHO] (Ac-VDVAD-aldehyde), for which it took 8 nM to reach half-maximal inhibition against N-His Ich-1 [1] (500 μM pNA substrate, inhibitor 0.1 nM to 10 μM, sigmoidal fit) (IC50). Further, the Ki on N-His Ich-1 [1] (calculated from IC50, [S] and Km, read-out: apparent Ki) was 2.5 nM.
Take “acetyl-Val-Asp-Val-Ala-Asp-para-nitroaniline”: in the data set with N-His Ich-1 [2], the cleaved bond entry is given as “Asp-pNA”.
